Reference: the Biogen ADME set (Fang et al. 2023)
In brackets after ≈: the same amount, converted by molar mass.

Conditions: for aqueous solubility: pH 6.8

MDR1-MDCK efflux ratio	intrinsic clearance, human liver microsomes	intrinsic clearance, rat liver microsomes	aqueous solubility	fraction unbound, human plasma	fraction unbound, rat plasma	Structure (SMILES)
0.838	22.4 mL/min/kg	257 mL/min/kg	22 µg/mL (≈ 68.4 µM)			O=C(NC1CCCCC1)C1CCN(c2ccncc2Cl)CC1
2.44	≤ 4.74 mL/min/kg	22.9 mL/min/kg	68.6 µg/mL (≈ 192 µM)			CC(=O)N1CCN(c2ncc(-c3cc(C)no3)c([C@H]3CCCO3)n2)CC1
14	46.5 mL/min/kg	357 mL/min/kg	35.2 µg/mL (≈ 104 µM)			CC(=O)N1CCC(Cn2ccnc2-c2cc3ccccc3s2)CC1
0.484	≤ 4.74 mL/min/kg	393 mL/min/kg	40.8 µg/mL (≈ 175 µM)			CN(CC(=O)Nc1ccncc1)C1CCCC1
			0.3 µg/mL (≈ 0.929 µM)			CCN1C(=O)C(=O)N(Cc2sc3ccccc3c2Cl)C1=O
4.89	140 mL/min/kg	1910 mL/min/kg				Cc1cc(C)c2[nH]c(C(=O)N3CC[C@@](O)(CC(C)C)[C@@H](Oc4ccc(F)cc4)C3)c(C)c2c1
30.5	≤ 4.74 mL/min/kg	27.8 mL/min/kg	41.1 µg/mL (≈ 166 µM)			O=C(NCCCn1ccnc1)N1CCC12CCC2
	7.88 mL/min/kg	567 mL/min/kg				O=C(NCC1(Sc2ccccc2)CC1)c1ccc(=O)[nH]n1
0.578	6.67 mL/min/kg	127 mL/min/kg				O=C(Nc1cnc2ccccc2n1)c1ccncc1
3.6	8.32 mL/min/kg	27.3 mL/min/kg	46.5 µg/mL (≈ 163 µM)			O=C(NCCc1ccc2c(c1)OCO2)Nc1ccncc1
5.75	72.5 mL/min/kg	327 mL/min/kg		0.00754	0.0188	CC(O)(C#Cc1ccc2c(c1)N(c1nc(N)ncc1Cl)CC2)c1nccs1 (stereo unspecified)
5.53	796 mL/min/kg	2110 mL/min/kg	50.7 µg/mL (≈ 139 µM)			CN1C(=O)N(CC(=O)NCc2ccc(Cl)cc2)C(=O)C12CCCCC2
	34.6 mL/min/kg	1080 mL/min/kg				O=C(Nc1c(F)cccc1Oc1ccccc1)c1cnccn1
2.09	190 mL/min/kg	1520 mL/min/kg				c1ccc(N2CCOCC2)c(CNc2cc(N3CCCC3)ncn2)c1
	24.9 mL/min/kg	228 mL/min/kg				CC(=O)N1CCc2c(sc(NC(=O)C(C)C)c2-c2nc3ccccc3s2)C1
0.697	18.7 mL/min/kg	483 mL/min/kg				CN(C)c1cncc(-c2ccc(C(=O)NC(C)(C)C)cc2)n1
	34.9 mL/min/kg	446 mL/min/kg	41 µg/mL (≈ 154 µM)			CCONC(=O)c1cnn(-c2cccc(Cl)c2)c1
0.553	127 mL/min/kg	2040 mL/min/kg				Cc1oc2ncnc(NCc3cc(F)cc4c3OCOC4)c2c1C
	10.2 mL/min/kg	24.1 mL/min/kg				CN(c1ccccc1N)S(C)(=O)=O
0.773	10.2 mL/min/kg	280 mL/min/kg	39.6 µg/mL (≈ 120 µM)			Fc1ccc(NCc2cccc(OCCN3CCOCC3)c2)nc1

MDR1-MDCK efflux ratio	intrinsic clearance, human liver microsomes	intrinsic clearance, rat liver microsomes	aqueous solubility	fraction unbound, human plasma	fraction unbound, rat plasma	Structure (SMILES)
1.81	373 mL/min/kg	1790 mL/min/kg				CC(C)N(C(=O)Cn1cccc2cc(-c3ccco3)nc1-2)C(C)C
51	10.4 mL/min/kg	393 mL/min/kg	21.9 µg/mL (≈ 58 µM)			O=C(CN1CCC(n2c(=O)[nH]c3ccccc32)CC1)N1CCc2ccccc21
	364 mL/min/kg	2380 mL/min/kg				Cc1ccc(S(=O)(=O)Nc2ccc3c(c2)CCCN3C(=O)c2cccs2)cc1C
			0.3 µg/mL (≈ 0.535 µM)			CC(C)(C)c1cc(NC(=O)Nc2ccc(-c3cn4c(n3)sc3cc(OCCN5CCOCC5)ccc34)cc2)no1
9.79	≤ 4.74 mL/min/kg	≤ 10.7 mL/min/kg	42.7 µg/mL (≈ 167 µM)			Cc1nc(O)c2c(n1)CN(Cc1ccccc1)CC2
	≤ 4.74 mL/min/kg	53.7 mL/min/kg				Cc1c(O)cccc1OCCN1CCOCC1
0.586	426 mL/min/kg	6400 mL/min/kg				O=C(CSc1ccccn1)N1CCSc2ccccc21
7.28	≤ 4.74 mL/min/kg	51.9 mL/min/kg	62.7 µg/mL (≈ 231 µM)			CC(C)C(=O)N1CC(Cc2nccc3ccn(C)c23)C1
0.848	28.6 mL/min/kg	95.3 mL/min/kg				CCc1cc(-c2ccc(OC)c3ncccc23)nc(N2CCOCC2)n1
2.65	≤ 4.74 mL/min/kg	20.8 mL/min/kg				C[C@@]12CCCN1C(=O)[C@H](C1CCCCC1)NC2=O
	67 mL/min/kg	193 mL/min/kg				Cc1cc(N2CCC(C(=O)NC3CCCCC3)CC2)nc(-c2ccncc2)n1
46.7	≤ 4.74 mL/min/kg	244 mL/min/kg				CNCc1cc(N(C)C)nc(C2CCCN2C(=O)COc2ccc(F)cc2)n1 (stereo unspecified)
0.926	460 mL/min/kg	2020 mL/min/kg	37.1 µg/mL (≈ 112 µM)			CC(C(=O)Nc1ccccc1)N1CCCN(c2nccs2)CC1 (stereo unspecified)
	31.3 mL/min/kg	593 mL/min/kg	17.9 µg/mL (≈ 61.5 µM)			CCCc1nnc2sc(-c3cc(C(C)C)nn3C)nn12
	≤ 4.74 mL/min/kg	≤ 10.7 mL/min/kg	32.2 µg/mL (≈ 155 µM)			COc1ccc(N)cc1N1CCOC1=O
0.841	11.5 mL/min/kg	48 mL/min/kg	36.8 µg/mL (≈ 127 µM)			COc1ccc(-c2nc(CN3CCC[C@H](O)C3)no2)cc1
0.58	12.9 mL/min/kg	131 mL/min/kg				Cn1ccc(CSc2n[nH]c(-c3cc(F)cc(F)c3)n2)n1
0.802	6.99 mL/min/kg	≤ 10.7 mL/min/kg	40.8 µg/mL (≈ 154 µM)			O=C(O)c1nc(-c2ccccc2)oc1-c1ccccc1
26.3	≤ 4.74 mL/min/kg	45.2 mL/min/kg	74.1 µg/mL			COc1cccc(C(=O)C[n+]2cc(-c3ccc(F)cc3)n(C)c2N)c1
			31.3 µg/mL (≈ 132 µM)			CS(=O)(=O)Cc1cc(-c2ccccc2)on1

MDR1-MDCK efflux ratio	intrinsic clearance, human liver microsomes	intrinsic clearance, rat liver microsomes	aqueous solubility	fraction unbound, human plasma	fraction unbound, rat plasma	Structure (SMILES)
4.93	4.92 mL/min/kg	100 mL/min/kg				Cc1ccccc1C(=O)N1CCC(O)(Cn2ccnc2C)CC1
0.776	≤ 4.74 mL/min/kg	162 mL/min/kg				O=c1c2cccnc2ncn1[C@H]1CCN(Cc2ccccc2)C1
0.769	11.4 mL/min/kg	106 mL/min/kg	3.86 µg/mL (≈ 11.1 µM)			Cc1cc(C)n(-c2ccc(CNC(=O)c3ccc4c(c3)CCO4)cn2)n1
0.46	102 mL/min/kg	3010 mL/min/kg				COc1ccc(C(=O)c2ccc(C)cc2)c(OC)c1
0.992	22.1 mL/min/kg	196 mL/min/kg	5.3 µg/mL (≈ 15.6 µM)			O=C(NCc1ccc(-n2cncn2)nc1)c1csc2c1CCCC2
			2.4 µg/mL (≈ 7.29 µM)			c1ccc2nc(N3CCC(c4nc5ccccc5[nH]4)CC3)cnc2c1
0.782	63.9 mL/min/kg	5650 mL/min/kg				Cc1cc(C(=O)N(C)CCCC2CCCC2)cc(C)n1
	20 mL/min/kg	143 mL/min/kg				O=c1n(Cc2ccncc2)nc2n1-c1cc(Cl)ccc1C1=NCCN12
15.3	≤ 4.74 mL/min/kg	534 mL/min/kg				CCCn1cnnc1CN(C)Cc1cc(C(C)C)on1
0.961	132 mL/min/kg	784 mL/min/kg	56.1 µg/mL (≈ 143 µM)			O=C(Cc1ccccc1F)N1CCN(c2nccn3nc4c(c23)CCCC4)CC1
4.95	≤ 4.74 mL/min/kg	94.4 mL/min/kg	45.4 µg/mL (≈ 148 µM)			Cc1cc(C)n(-c2ccc(C(=O)NCc3cccnc3)cc2)n1
0.674			49 µg/mL (≈ 242 µM)			Oc1ccc(-c2noc(C3CC3)n2)cc1
2.07	7.42 mL/min/kg	308 mL/min/kg				CC1(CNC(=O)N2CCN(Cc3ccon3)CC2)CCCC1
0.868			0.2 µg/mL (≈ 0.54 µM)			O=C(Nc1ccccc1)c1c([O-])n(-c2ccccc2)n[n+]1Cc1ccccc1
2.74	124 mL/min/kg	1260 mL/min/kg	22.2 µg/mL (≈ 62 µM)			CN(C)c1cnn(CCC(C#N)(c2ccccc2)c2ccccc2)c(=O)c1
1.19	≤ 4.74 mL/min/kg	20.7 mL/min/kg				CC(C)(C)OC(=O)c1ccc(-n2[nH]cc(-n3ccnn3)c2=O)nc1
202	≤ 4.74 mL/min/kg	19.2 mL/min/kg		0.239	1	CCS(=O)(=O)N1CC(CC#N)(n2cc(-c3ncnc4[nH]ccc34)cn2)C1
1.5	17.1 mL/min/kg	623 mL/min/kg				CC(C)(C)CCCNC(=O)N1CCN(Cc2ccon2)CC1
	20.5 mL/min/kg	415 mL/min/kg				N#Cc1cc(F)ccc1Cn1ccnc1-c1ccccn1

Structure (SMILES)	MDR1-MDCK efflux ratio	intrinsic clearance, human liver microsomes	intrinsic clearance, rat liver microsomes	aqueous solubility	fraction unbound, human plasma	fraction unbound, rat plasma
N#CCCCN1CCC(c2c[nH]c3ccccc23)CC1	0.46	23.8 mL/min/kg	1730 mL/min/kg	54.6 µg/mL (≈ 204 µM)		
